{
  "source": "patent US20220372066A1",
  "about": "“HUMAN SQUALAMINE DERIVATIVES (ENT-06), RELATED COMPOSITIONS COMPRISING THE SAME, AND METHOD OF USING THE SAME” (Enterin, Inc., priority 2019, published 2022)",
  "key": {"[1]": {"biological_target": "sodium-hydrogen exchanger (“NHE-3”) (Oryctolagus cuniculus, UniProt P26432)", "sequence (P26432 30-832)": "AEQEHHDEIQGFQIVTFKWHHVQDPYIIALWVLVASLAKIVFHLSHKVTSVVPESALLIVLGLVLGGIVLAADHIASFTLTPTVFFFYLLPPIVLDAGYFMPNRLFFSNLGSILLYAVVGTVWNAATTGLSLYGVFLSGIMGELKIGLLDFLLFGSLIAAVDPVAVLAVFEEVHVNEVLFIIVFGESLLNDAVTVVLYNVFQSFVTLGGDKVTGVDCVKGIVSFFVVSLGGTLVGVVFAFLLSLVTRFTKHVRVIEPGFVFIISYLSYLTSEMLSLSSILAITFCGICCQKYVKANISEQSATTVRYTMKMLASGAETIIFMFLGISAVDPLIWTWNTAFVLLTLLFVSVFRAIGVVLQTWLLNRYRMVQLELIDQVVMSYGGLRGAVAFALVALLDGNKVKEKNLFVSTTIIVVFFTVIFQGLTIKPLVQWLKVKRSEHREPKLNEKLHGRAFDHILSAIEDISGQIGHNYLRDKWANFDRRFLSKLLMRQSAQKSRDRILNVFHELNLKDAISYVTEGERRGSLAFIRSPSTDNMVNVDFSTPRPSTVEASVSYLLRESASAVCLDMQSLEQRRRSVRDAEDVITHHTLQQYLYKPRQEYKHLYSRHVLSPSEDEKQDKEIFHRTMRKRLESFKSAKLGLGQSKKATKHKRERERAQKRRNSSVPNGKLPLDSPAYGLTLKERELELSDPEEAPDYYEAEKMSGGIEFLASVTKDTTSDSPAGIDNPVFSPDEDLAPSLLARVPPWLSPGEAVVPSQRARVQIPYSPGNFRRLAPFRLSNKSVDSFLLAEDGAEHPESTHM", "settings": "Akhter, Nath et al. 1999; cited from earlier work"}, "[2]": {"system": "murine stomach tissue gene expression profile", "experiment": "Congruence analysis of differentially expressed stomach genes, ENT-01 vs ENT-06", "assay_type": "in vivo, mouse", "source_text": "Genes that were differentially expressed in response to ENT-01 treatment, as identified in this study, were compared to those that were associated with ENT-06 treatments, respectively. ENT-06 treatment-associated gene expression changes were identified previously. Across all contrasts at the relevant statistical thresholds used to identify significant features, there were ten or less genes that changed in expression upon both treatments (ENT-01 and ENT-06). Note that this included the gene expression changes associated with ageing.\nCongruence analysis was performed between the contrasts Specifically, the analysis compared the effects of human- or shark-origin compound analogues on murine stomach tissue gene expression profile as follows: ENT-01 was compared to ENT-06. Scatter plots, upset plots, venn diagrams, hypergeometric tests and Spearman rank correlation tests were employed to assess the level of overlap. […] Whereas the ENT-01 contrasts in this study defined significant genes using a cutoff of greater than four-fold change in expression.\nCongruence between these sets of genes was then assessed by comparing ENT-01-affected genes to those of ENT-06. […] The symbol U denotes the universe. Overlap was assessed between ENT-01 vs control (young) (202 genes) and ENT-06 vs untreated (young) (26 genes). 10 genes overlapped between the two sets when not considering direction of change. […] The Spearman rank correlation between the genes in the two sets was −0.1313.\nCongruence analysis for: ENT-01 vs ENT-06 (old) was also conducted. […] Overlap was assessed between ENT-01 vs control (old) (383 genes) and ENT-06 vs untreated (old) (55 genes). 1 genes overlapped between the two sets when not considering direction of change. This is no more than would be expected by chance (p=0.5057). The Spearman rank correlation between the genes in the two sets was 0.003217."}, "[3]": {"system": "mouse stomach RNA transcriptome", "experiment": "RNAseq of stomach transcriptome in old mice after oral squalamine (Example 1)", "assay_type": "in vivo", "settings": "oral dosing 14 days", "experimental": "The dosing schedule used to determine the effect of orally administered squalamine and ENT-02 (MSI-1436) on the GI tracts of young and old mice was as follows. Male C57B1/6 mice, aged 20 and 78 weeks, were obtained from Jackson labs. Animals were exposed to 12 hr light dark cycles and provided Teklad standard mouse diet and water ad lib.\nAnimals were dosed once daily by oral gavage in the morning for a total of 14 days. Animals were fasted 3-4 hours prior to dosing and 1 hour following. The test article was dissolved in 0.5% hydroxypropylcellulose in water. On day 15 the animals were euthanized by C02 asphyxiation, necropsied, and tissues prepared for histology and RNAseq analysis.\nThe GI tracts of the animals were sectioned into stomach, duodenum, jejunum, ileum, caecum, colon, and rectum. The tissues were then sent for histology, and the transcriptomes analyzed by RNAseq."}, "[4]": {"system": "mice with constipation due to overexpression of human αS", "settings": "orally administered; cited from earlier work"}, "[5]": {"system": "mouse stomach tissues gene expression", "experiment": "Treatment induced gene expression in mouse stomach tissues, RNA-sequencing, differential expression by fold change (Example 3)", "assay_type": "in vivo", "settings": "for Number of significant features, Down-regulated, fold change threshold 1.3× / Number of significant features, Down-regulated, fold change threshold 2× / Number of significant features, Down-regulated, fold change threshold 4× / Number of significant features, Down-regulated, fold change threshold 8× / Number of significant features, Down-regulated, fold change threshold 16× / Number of significant features, Down-regulated, fold change threshold Any / Number of significant features, Up-regulated, fold change threshold 1.3× / Number of significant features, Up-regulated, fold change threshold 2× / Number of significant features, Up-regulated, fold change threshold 4× / Number of significant features, Up-regulated, fold change threshold 8× / Number of significant features, Up-regulated, fold change threshold 16× / Number of significant features, Up-regulated, fold change threshold Any: stomach"}, "[6]": {"settings": "cutoff greater than four-fold change in expression"}, "[7]": {"settings": "Old vs young mice, both treated"}, "[8]": {"settings": "treatment vs control (old mice)"}, "[9]": {"settings": "treatment vs control (young mice)"}},
  "data": [
    {"molecule": "CC(C)[C@@H](CC[C@@H](C)[C@H]1CC[C@H]2[C@@H]3[C@H](O)C[C@H]4C[C@@H](NCCCNCCCCN)CC[C@]4(C)[C@H]3CC[C@]12C)OS(=O)(=O)O", "note": "(single isomer, unassigned) [ENT-01, squalamine]", "values": [
      {"measurement": "inhibition of NHE-3", "setting": "[1]", "value": "inhibit"},
      {"measurement": "number of significant genes, treatment vs control (old)", "setting": "[2]; [6]", "value": 383, "unit": "genes"},
      {"measurement": "number of significant genes, treatment vs control (young)", "setting": "[2]; [6]", "value": 202, "unit": "genes"},
      {"measurement": "mRNA levels for all of the genes of Table 3 after treatment", "setting": "[3]", "value": "significant increase"},
      {"measurement": "gastro-intestinal motility", "setting": "[4]", "value": "stimulates gastro-intestinal motility"},
      {"measurement": "overlap of genes downregulated in aged mice with genes up-regulated in response to treatment in old mice", "setting": "[5]; hypergeometric P<0.0001", "value": "overlapped significantly"}
    ]},
    {"molecule": "CC(C)[C@@H](CC[C@@H](C)[C@H]1CC[C@H]2[C@@H]3[C@H](O)C[C@H]4C[C@@H](NCCCNCCCCNCCCN)CC[C@]4(C)[C@H]3CC[C@]12C)OS(=O)(=O)O", "note": "(single isomer, unassigned) [ENT-02 (MSI-1436), trodusquemine]", "values": [
      {"measurement": "Number of significant features, Down-regulated, fold change threshold 1.3×", "setting": "[5]; [7]", "value": 1986},
      {"measurement": "Number of significant features, Down-regulated, fold change threshold 2×", "setting": "[5]; [7]", "value": 314},
      {"measurement": "Number of significant features, Down-regulated, fold change threshold 4×", "setting": "[5]; [7]", "value": 63},
      {"measurement": "Number of significant features, Down-regulated, fold change threshold 8×", "setting": "[5]; [7]", "value": 8},
      {"measurement": "Number of significant features, Down-regulated, fold change threshold 16×", "setting": "[5]; [7]", "value": 4},
      {"measurement": "Number of significant features, Down-regulated, fold change threshold Any", "setting": "[5]; [7]", "value": 7344},
      {"measurement": "Number of significant features, Up-regulated, fold change threshold 1.3×", "setting": "[5]; [7]", "value": 2644},
      {"measurement": "Number of significant features, Up-regulated, fold change threshold 2×", "setting": "[5]; [7]", "value": 676},
      {"measurement": "Number of significant features, Up-regulated, fold change threshold 4×", "setting": "[5]; [7]", "value": 190},
      {"measurement": "Number of significant features, Up-regulated, fold change threshold 8×", "setting": "[5]; [7]", "value": 78},
      {"measurement": "Number of significant features, Up-regulated, fold change threshold 16×", "setting": "[5]; [7]", "value": 39},
      {"measurement": "Number of significant features, Up-regulated, fold change threshold Any", "setting": "[5]; [7]", "value": 7669},
      {"measurement": "Number of significant features, Down-regulated, fold change threshold 1.3×", "setting": "[5]; [8]", "value": 1395},
      {"measurement": "Number of significant features, Down-regulated, fold change threshold 2×", "setting": "[5]; [8]", "value": 203},
      {"measurement": "Number of significant features, Down-regulated, fold change threshold 4×", "setting": "[5]; [8]", "value": 38},
      {"measurement": "Number of significant features, Down-regulated, fold change threshold 8×", "setting": "[5]; [8]", "value": 7},
      {"measurement": "Number of significant features, Down-regulated, fold change threshold 16×", "setting": "[5]; [8]", "value": 1},
      {"measurement": "Number of significant features, Down-regulated, fold change threshold Any", "setting": "[5]; [8]", "value": 7597},
      {"measurement": "Number of significant features, Up-regulated, fold change threshold 1.3×", "setting": "[5]; [8]", "value": 2109},
      {"measurement": "Number of significant features, Up-regulated, fold change threshold 2×", "setting": "[5]; [8]", "value": 657},
      {"measurement": "Number of significant features, Up-regulated, fold change threshold 4×", "setting": "[5]; [8]", "value": 298},
      {"measurement": "Number of significant features, Up-regulated, fold change threshold 8×", "setting": "[5]; [8]", "value": 139},
      {"measurement": "Number of significant features, Up-regulated, fold change threshold 16×", "setting": "[5]; [8]", "value": 42},
      {"measurement": "Number of significant features, Up-regulated, fold change threshold Any", "setting": "[5]; [8]", "value": 7416},
      {"measurement": "Number of significant features, Down-regulated, fold change threshold 1.3×", "setting": "[5]; [9]", "value": 2429},
      {"measurement": "Number of significant features, Down-regulated, fold change threshold 2×", "setting": "[5]; [9]", "value": 531},
      {"measurement": "Number of significant features, Down-regulated, fold change threshold 4×", "setting": "[5]; [9]", "value": 120},
      {"measurement": "Number of significant features, Down-regulated, fold change threshold 8×", "setting": "[5]; [9]", "value": 43},
      {"measurement": "Number of significant features, Down-regulated, fold change threshold 16×", "setting": "[5]; [9]", "value": 16},
      {"measurement": "Number of significant features, Down-regulated, fold change threshold Any", "setting": "[5]; [9]", "value": 7667},
      {"measurement": "Number of significant features, Up-regulated, fold change threshold 1.3×", "setting": "[5]; [9]", "value": 1860},
      {"measurement": "Number of significant features, Up-regulated, fold change threshold 2×", "setting": "[5]; [9]", "value": 232},
      {"measurement": "Number of significant features, Up-regulated, fold change threshold 4×", "setting": "[5]; [9]", "value": 30},
      {"measurement": "Number of significant features, Up-regulated, fold change threshold 8×", "setting": "[5]; [9]", "value": 7},
      {"measurement": "Number of significant features, Up-regulated, fold change threshold 16×", "setting": "[5]; [9]", "value": 1},
      {"measurement": "Number of significant features, Up-regulated, fold change threshold Any", "setting": "[5]; [9]", "value": 7346}
    ]},
    {"molecule": "C[C@H](CCC[C@@H](C)[C@H]1CCC2C3C(CC[C@@]21C)[C@@]1(C)CC[C@H](NCCCNCCCCN)C[C@@H]1C[C@H]3O)C(=O)O", "note": "(single isomer, unassigned) [ENT-06, 3-β-Spermidino-7α-hydroxy-5α-cholestanoic acid]", "values": [
      {"measurement": "Spearman rank correlation between the genes in the ENT-01 and ENT-06 sets", "setting": "[2]; old mice", "value": 0.003217},
      {"measurement": "overlap of genes down-regulated in ageing and up-regulated in treatment, ENT-01 vs ENT-06", "setting": "[2]; old mice", "value": "did not overlap"},
      {"measurement": "genes overlapping with ENT-01 vs control (old) set, not considering direction of change", "setting": "[2]; old mice, p=0.5057", "value": 1, "unit": "genes"},
      {"measurement": "number of significant genes, treatment vs untreated (old)", "setting": "[2]; threshold FDR-adjusted P<0.05", "value": 55, "unit": "genes"},
      {"measurement": "number of significant genes, treatment vs untreated (young)", "setting": "[2]; threshold FDR-adjusted P<0.05", "value": 26, "unit": "genes"},
      {"measurement": "genes overlapping with ENT-01 vs control (young) set, not considering direction of change", "setting": "[2]; young mice, p=1.721e−16", "value": 10, "unit": "genes"},
      {"measurement": "Spearman rank correlation between the genes in the ENT-01 and ENT-06 sets", "setting": "[2]; young mice, p=5.678e−57", "value": "−0.1313"}
    ]}
  ]
}
